This is an account of results in patent US20240374591A1, “CEREBLON BINDING COMPOUNDS, COMPOSITIONS THEREOF, AND METHODS OF TREATMENT THEREWITH” (CELGENE CORPORATION, priority 2021, published 2024).

In general, DC50 refers to the concentration at which degradation of the target reaches its halfway point. High values mean degradation only at high concentration, low ones degradation at low concentration.

The target in this test is T1, AR in VCaP cells (Homo sapiens, UniProt P10275).
T1 construct: endogenous in cells; host or cells: VCaP cells
T1 sequence (P10275 1-920): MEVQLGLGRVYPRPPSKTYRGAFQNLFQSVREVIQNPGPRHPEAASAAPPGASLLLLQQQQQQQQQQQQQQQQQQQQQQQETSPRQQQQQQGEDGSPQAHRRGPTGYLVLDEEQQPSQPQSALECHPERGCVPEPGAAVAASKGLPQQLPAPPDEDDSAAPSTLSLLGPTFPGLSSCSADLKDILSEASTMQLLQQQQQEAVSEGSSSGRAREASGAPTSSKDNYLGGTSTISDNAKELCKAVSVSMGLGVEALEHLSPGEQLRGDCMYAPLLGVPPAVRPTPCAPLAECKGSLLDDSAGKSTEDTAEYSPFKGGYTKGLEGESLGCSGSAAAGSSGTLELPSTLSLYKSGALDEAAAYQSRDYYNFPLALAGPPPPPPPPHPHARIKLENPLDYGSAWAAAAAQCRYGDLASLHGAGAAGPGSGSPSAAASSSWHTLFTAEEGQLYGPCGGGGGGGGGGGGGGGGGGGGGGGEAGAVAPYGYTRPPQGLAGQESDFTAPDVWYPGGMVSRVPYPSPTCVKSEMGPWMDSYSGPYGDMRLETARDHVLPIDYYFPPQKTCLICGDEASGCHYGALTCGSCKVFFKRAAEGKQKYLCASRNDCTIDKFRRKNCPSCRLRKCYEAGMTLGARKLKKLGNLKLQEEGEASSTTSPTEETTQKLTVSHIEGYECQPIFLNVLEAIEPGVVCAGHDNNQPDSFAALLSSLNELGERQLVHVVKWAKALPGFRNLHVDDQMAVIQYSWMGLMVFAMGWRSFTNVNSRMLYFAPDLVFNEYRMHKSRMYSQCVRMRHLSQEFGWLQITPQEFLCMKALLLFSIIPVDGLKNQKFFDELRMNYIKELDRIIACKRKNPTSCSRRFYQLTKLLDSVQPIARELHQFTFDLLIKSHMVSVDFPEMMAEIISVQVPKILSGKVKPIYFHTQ
Description: VCAP AR Degradation Assay (AR ELISA, 24 h). It counts as cell-based. The conditions noted are these: for DC50: concentration giving 50% AR degradation vs DMSO control; for remaining activity at up to 5 µM: lowest measured AR level normalized to DMSO control, top concentration 5 μM, read-out: Y. The method, then: VCAP AR Degradation Assay. Test compounds were pre-dispensed into a Corning CellBind 96-well clear bottom plate (Cat #3300) using an acoustic dispenser to make a 10-point concentration series at 1:3 dilution for each compound. The final top concentration of each compound was 5 μM. DMSO at a final concentration of 0.1% was used as a control. VCaP cells cultured in DMEM with 8% fetal bovine serum (FBS) were seeded at 50K cells per well in a 200 μL volume into the compound plate and incubated at 37° C. in a CO2 incubator for 24 h. The medium was carefully removed from the cells and the plate was placed on ice. One hundred μL of ice-cold 1× cell lysis buffer from Cell Signaling Technologies (Cat #9803) was added to each well of the cells and the plate was incubated at 4° C. on a shaker for 1 h. Fifteen μL of cell lysate was used for AR ELISA detection using a PathScan Total Sandwich AR ELISA kit (Cell Signaling Technology, Cat #12580). AR levels in compound-treated wells were normalized to that of DMSO control and expressed as percent of control (PoC) (y). A Four Parameter Logistic Model (Sigmoidal Dose-Response Model) was used to determine the compound's DC50, and EC50, using the following equation: […]
The lowest measured AR level normalized to DMSO control in response to compound treatment, termed Y value, was used to characterize the compound-mediated AR degradation efficiency.
(ELISA stands for enzyme-linked immunosorbent assay.)

Structures can show the parent of a compound that is named as a salt.

In the case of `C[C@@H]1CN(CCCC[C@H]2CC[C@H](N3C(=S)N(c4ccc(C#N)c(C(F)(F)F)c4)C(=O)C3(C)C)CC2)C[C@H](C)N1CC(=O)Nc1ccc(C2CCC(=O)NC2=O)nc1` (stereo partly drawn) [Cmpd 16, 2-((2R,6S)-4-(4-((trans)-4-(3-(4-Cyano-3-(trifluoromethyl)phenyl)-5,5-dimethyl-4-oxo-2-thioxoimidazolidin-1-yl)cyclohexyl)butyl)-2,6-dimethylpiperazin-1-yl)-N-(6-(2,6-dioxopiperidin-3-yl)pyridin-3-yl)acetamide], the DC50 was at most 5 nM and the remaining activity at up to 5 µM was 20 to 30%.

For the compound `C[C@@H]1C[C@H](OCCO[C@H]2CC[C@H](N3C(=S)N(c4cnc(C#N)c(C(F)(F)F)c4)C(=O)C3(C)C)CC2)C[C@H](C)N1CC(=O)Nc1ccc(C2CCC(=O)NC2=O)nc1` (stereo partly drawn) [Cmpd 30, 2-((2R,4r,6S)-4-(2-(((trans)-4-(3-(6-Cyano-5-(trifluoromethyl)pyridin-3-yl)-5,5-dimethyl-4-oxo-2-thioxoimidazolidin-1-yl)cyclohexyl)oxy)ethoxy)-2,6-dimethylpiperidin-1-yl)-N-(6-(2,6-dioxopiperidin-3-yl)pyridin-3-yl)acetamide], the 50% degradation concentration (DC50) is at most 5 nM and the remaining activity at up to 5 µM was in the range of 0 to 20%.

Turning to `CC1(C)C(=O)N(c2ccc(C#N)c(C(F)(F)F)c2)C(=S)N1[C@H]1CC[C@H](OCCN2CCN(CC(=O)Nc3ccc(C4CCC(=O)NC4=O)nc3)[C@@H](C(F)(F)F)C2)CC1` (stereo partly drawn) [Cmpd 13, 2-((R)-4-(2-((trans-4-(3-(4-Cyano-3-(trifluoromethyl)phenyl)-5,5-dimethyl-4-oxo-2-thioxoimidazolidin-1-yl)cyclohexyl)oxy)ethyl)-2-(trifluoromethyl)piperazin-1-yl)-N-(6-(2,6-dioxopiperidin-3-yl)pyridin-3-yl)acetamide hydrochloride], the DC50 was in the range of 5 to 10 nM and the remaining activity at up to 5 µM was 20 to 30%.

For the compound `C[C@@H]1C[C@H](CCO[C@H]2CC[C@H](N3C(=S)N(c4ccc(C#N)c(C(F)(F)F)c4)C(=O)C3(C)C)CC2)C[C@H](C)N1CC(=O)Nc1ccc(C2CCC(=O)NC2=O)nc1` (stereo partly drawn) [Cmpd 17, 2-((2R,4r,6S)-4-(2-(((trans)-4-(3-(4-Cyano-3-(trifluoromethyl)phenyl)-5,5-dimethyl-4-oxo-2-thioxoimidazolidin-1-yl)cyclohexyl)oxy)ethyl)-2,6-dimethylpiperidin-1-yl)-N-(6-(2,6-dioxopiperidin-3-yl)pyridin-3-yl)acetamide], the DC50 was at most 5 nM and the remaining activity at up to 5 µM was in the range of 20 to 30%.

Consider `CC1(C)C(=O)N(c2cnc(C#N)c(C(F)(F)F)c2)C(=S)N1[C@H]1CC[C@H](OCCC2CCN(CC(=O)Nc3ccc(C4CCC(=O)NC4=O)nc3)CC2(F)F)CC1` (stereo partly drawn) [Cmpd 32, 2-(4-(2-(((trans)-4-(3-(6-Cyano-5-(trifluoromethyl)pyridin-3-yl)-5,5-dimethyl-4-oxo-2-thioxoimidazolidin-1-yl)cyclohexyl)oxy)ethyl)-3,3-difluoropiperidin-1-yl)-N-(6-(2,6-dioxopiperidin-3-yl)pyridin-3-yl)acetamide], for which the DC50 is at most 5 nM and the remaining activity at up to 5 µM lay in the range of 0 to 20%.

Turning to `C[C@@H]1C[C@H](OCCO[C@H]2CC[C@H](N3C(=S)N(c4ccc(C#N)c(C(F)(F)F)c4)C(=O)C3(C)C)CC2)C[C@H](C)N1CC(=O)Nc1ccc(C2CCC(=O)NC2=O)nc1` (stereo partly drawn) [Cmpd 29, 2-((2R,4r,6S)-4-(2-(((trans)-4-(3-(4-Cyano-3-(trifluoromethyl)phenyl)-5,5-dimethyl-4-oxo-2-thioxoimidazolidin-1-yl)cyclohexyl)oxy)ethoxy)-2,6-dimethylpiperidin-1-yl)-N-(6-(2,6-dioxopiperidin-3-yl)pyridin-3-yl)acetamide], the half-maximal degradation concentration (DC50) is at most 5 nM and the remaining activity at up to 5 µM was in the range of 20 to 30%.

As for `C[C@@H]1CN(CCC[C@H]2CC[C@H](N3C(=S)N(c4cnc(C#N)c(Cl)c4)C(=O)C3(C)C)CC2)C[C@H](C)N1CC(=O)Nc1ccc(C2CCC(=O)NC2=O)nc1` (stereo partly drawn) [Cmpd 11, 2-((2S,6R)-4-(3-(trans-4-(3-(5-Chloro-6-cyanopyridin-3-yl)-5,5-dimethyl-4-oxo-2-thioxoimidazolidin-1-yl)cyclohexyl)propyl)-2,6-dimethylpiperazin-1-yl)-N-(6-(2,6-dioxopiperidin-3-yl)pyridin-3-yl)acetamide hydrochloride], the 50% degradation concentration (DC50) is at most 5 nM and the remaining activity at up to 5 µM is 20 to 30%.

`C[C@@H]1CN(CCCO[C@H]2CC[C@H](N3C(=S)N(c4ccc(C#N)c(Cl)c4)C(=O)C3(C)C)CC2)C[C@H](C)N1CC(=O)Nc1ccc(C2CCC(=O)NC2=O)nc1` (stereo partly drawn) [Cmpd 7, 2-((2R,6S)-4-(3-((trans-4-(3-(3-Chloro-4-cyanophenyl)-5,5-dimethyl-4-oxo-2-thioxoimidazolidin-1-yl)cyclohexyl)oxy)propyl)-2,6-dimethylpiperazin-1-yl)-N-(6-(2,6-dioxopiperidin-3-yl)pyridin-3-yl)acetamide hydrochloride]: the 50% degradation concentration (DC50) is at most 5 nM and the remaining activity at up to 5 µM lay within 0 to 20%.

Regarding `CC1(C)C(=O)N(c2cnc(C#N)c(C(F)(F)F)c2)C(=S)N1[C@H]1CC[C@H](OCCN2CCN(CC(=O)Nc3ccc(C4CCC(=O)NC4=O)nc3)[C@@H](C(F)(F)F)C2)CC1` (stereo partly drawn) [Cmpd 24, 2-((R)-4-(2-(((trans)-4-(3-(6-Cyano-5-(trifluoromethyl)pyridin-3-yl)-5,5-dimethyl-4-oxo-2-thioxoimidazolidin-1-yl)cyclohexyl)oxy)ethyl)-2-(trifluoromethyl)piperazin-1-yl)-N-(6-(2,6-dioxopiperidin-3-yl)pyridin-3-yl)acetamide], the DC50 is at most 5 nM and the remaining activity at up to 5 µM was in the range of 20 to 30%.

Take `CC1(C)C(=O)N(c2ccc(C#N)c(C(F)(F)F)c2)C(=S)N1[C@H]1CC[C@H](OCCCN2CCN(CC(=O)Nc3ccc(C4CCC(=O)NC4=O)nc3)[C@@H](C(F)(F)F)C2)CC1` (stereo partly drawn) [Cmpd 25, 2-((R)-4-(3-(((trans)-4-(3-(4-Cyano-3-(trifluoromethyl)phenyl)-5,5-dimethyl-4-oxo-2-thioxoimidazolidin-1-yl)cyclohexyl)oxy)propyl)-2-(trifluoromethyl)piperazin-1-yl)-N-(6-(2,6-dioxopiperidin-3-yl)pyridin-3-yl)acetamide]: the DC50 was at most 5 nM and the remaining activity at up to 5 µM is 20 to 30%.

Take `C[C@@H]1CN(CCCO[C@H]2CC[C@H](N3C(=S)N(c4ccc(C#N)c(C(F)(F)F)c4)C(=O)C3(C)C)CC2)C[C@H](C)N1CC(=O)Nc1ccc(C2CCC(=O)NC2=O)nc1` (stereo partly drawn) [Cmpd 5, 2-((2R,6S)-4-(3-((trans-4-(3-(4-Cyano-3-(trifluoromethyl)phenyl)-5,5-dimethyl-4-oxo-2-thioxoimidazolidin-1-yl)cyclohexyl)oxy)propyl)-2,6-dimethylpiperazin-1-yl)-N-(6-(2,6-dioxopiperidin-3-yl)pyridin-3-yl)acetamide hydrochloride]: the DC50 was at most 5 nM and the remaining activity at up to 5 µM is 20 to 30%.

On to `C[C@@H]1C[C@H](CCO[C@H]2CC[C@H](N3C(=S)N(c4cnc(C#N)c(C(F)(F)F)c4)C(=O)C3(C)C)CC2)C[C@H](C)N1CC(=O)Nc1ccc(C2CCC(=O)NC2=O)nc1` (stereo partly drawn) [Cmpd 18, 2-((2R,4r,6S)-4-(2-(((trans)-4-(3-(6-Cyano-5-(trifluoromethyl)pyridin-3-yl)-5,5-dimethyl-4-oxo-2-thioxoimidazolidin-1-yl)cyclohexyl)oxy)ethyl)-2,6-dimethylpiperidin-1-yl)-N-(6-(2,6-dioxopiperidin-3-yl)pyridin-3-yl)acetamide], for which the 50% degradation concentration (DC50) is at most 5 nM and the remaining activity at up to 5 µM is 0 to 20%.
